Measurements from patent publication US20050019826A1 (priority 2000, published 2005).
Entries after “also recorded” stand apart in the source; their conditions may differ. Ends that are not written are not given here.

Experiments:
KDR [1] = experiment: Displacement of 125I-VEGF165 binding to CHO-KDR transfected cells by V1 derivatives; conditions: for peptide efficiency after change of C-terminal arginine: compared with V1; for Efficiency (% Emax): relative to V1 = 100
Text: FIG. 11. […] Experimental conditions are indicated in the legend of FIG. 10.
FIG. 12. […] Experimental conditions are indicated in the legend of FIG. 10.
(§1) Experimental conditions are indicated in the legend of FIG. 10.
FIG. 17. […] Experimental conditions are indicated in the legend of FIG. 10.

[2] = tested on: Calf pulmonary artery endothelial cells (CPAE); experiment: CPAE cell proliferation assay (BrdU incorporation); type: cell-based; conditions: 2.1×10^−4M synthetic peptide, 24 h
Method: FIG. 3. The anti-VEGF antibody blocks CPAE cell growth. CPAE cell growth was measured in cultures supplemented with various concentrations of anti-VEGF antibody and compared with untreated cultures. Data represent means and standard deviations of proliferation inhibition for triplicate samples and are representative of two independent experiments.
FIG. 6. V1 inhibits CPAE cell proliferation. CPAE cell growth was measured after 24h of incubation in presence of synthetic peptides selected by antibody binding (A) or by KDR binding (B) and compared with untreated cultures. Data represent means and standard deviations of proliferation inhibition for triplicates and are representative of three independent experiments.
(§2) Cell proliferation assay. To test the anti-VEGF antibody neutralizing effect, CPAE cells were plated into 96-well tissue culture plates at a density of 500 cells/well. After 24 h, various concentrations of anti-VEGF antibody were added. The cells were cultured for an additional day and cell proliferation was measured using the Cell proliferation ELISA kit from Boerhinger (Indianapolis, Ind.). Cells were incubated with BrdU for 4 h at 37° C., and the incorporation of BrdU in newly synthetized DNA was quantified by immunoassay as described by the manufacturer. To investigate the peptide effect, after 24 h of CPAE cell growth, 2.1×10^−4M synthetic peptides were added daily to the culture medium. Cell proliferation was assessed after 24 h, 48 h or 72 h as described above. […] Cells were trypsinized and counted after 5 days using a Coulter counter.

KDR [3] = experiment: ELISA of the phage-displayed peptide binding to CHO-KDR cells; conditions: clones selected by anti-VEGF antibody binding, 10^12 pfu/ml
Method: FIG. 2. […] Clones selected by KDR binding (10^13 pfu/ml) (A) or by anti-VEGF antibody binding (10^12 pfu/ml) (B) were compared with M13 phage particles (control). Results are representative of three independent assays.
Exponentially growing CHO-KDR cells were seeded in 96-well microtiter plates at 7×10^4 cells/well and left overnight at 37° C. Cells were fixed with paraformaldehyde (4% in PBS) for 15 min at room temperature and washed with PBS. Wells were then filled with PBS-Glycine 0.2%, kept for 15 min at room temperature and then washed with PBS. Phage particles (10^12 or 10^13/ml) were added to each well and incubated 2 h at room temperature. Wells were washed with PBS and the amount of bound phage was detected with peroxidase-conjugated anti-M13 phage serum (Pharmacia Biotech, Uppsala, Sweden).

KDR [4] = experiment: Competition assay of 125I-VEGF binding to CHO-KDR cells; design: block of VEGF binding to CHO-KDR cells: dose or concentration left out as unconfirmed; conditions: for inhibitory effect on VEGF binding to KDR: fixed peptide concentration 2.1×10^−4M, heparin 1.8 μg/ml
Method: FIG. 1. […] (B) Effect of heparin. […] Data correspond to the mean and standard deviations of triplicate samples.
FIG. 4. […] Data represent the means and standard deviations of triplicate samples.
FIG. 5. […] Data represent the mean and standard deviations of triplicate samples.
Competition assay of binding to CHO-KDR cells. CHO-KDR cells were seeded in 24-well plates at a density of 5×10^5 cells/well. After 24 h, subconfluent plates were transferred at 4° C., and all subsequent operations were done at 4° C. […] After 3 h, cells were washed five times with binding buffer and solubilized by the addition of 0.5 M NaOH. The amount of radioactivity bound to the cells was counted in a gamma counter (LKB 1261 Multigamma). The receptor affinity and the number of binding sites per cell were determined by Scatchard's analysis (Scatchard, 1986).

[5] = tested on: Human Umbilical Artery Endothelial Cells (HUAE); experiment: HUAE cell proliferation induced by VEGF; type: cell-based; conditions: 2 ng/ml VEGF, peptide daily, 5 days
Method: (§3) FIG. 7. […] Cells were counted after 5 days. Data are means of proliferation inhibition percentages for triplicate samples.
as §2

[6] = tested on: VEGF-induced corneal angiogenesis; experiment: Rabbit corneal pocket assay; type: in vivo, New Zealand rabbit; conditions: day 12; for effect on VEGF-induced corneal angiogenic response: implant 2 pmol VEGF + 30 nmol peptide; for neovascularization by peptide compared with vehicle alone: implant 30 nmol peptide, absence of VEGF
Method: FIG. 9. V1 inhibits corneal angiogenesis in vivo.
Rabbit corneal pocket assay. […] These implants were inserted in New Zealand rabbit (Elevage du Trottis, Esperce, France) corneal stroma 2 mm away from the limbus (Favard et al, 1991). Neovascularization was assessed on day 12 by direct examination with a slit lamp and scored according to a 4 grade scale (grade 1: less than 1 mm long neovessels, grade 2: 1 mm long neovessels, grade 3: 1 to 2 mm long neovessels, grade 4: neovessels extending to the implant). Means and standard deviations were determined on 8 implant groups for each condition.

[7] = tested on: 125I-VEGF-receptor complexes (VEGF-R2, NP1) on HUV-EC cells; experiment: Cross linking of 125I VEGF165 to HUV-EC cells; type: binding, human; conditions: V1 2.4×10^−4M and 4.8×10^−4M, 125I VEGF165 160 pM
Text: FIG. 19. […] 1: Total binding. […] 3: V1, (2.4×10^−4M). 4: V1, (4.8×10^−4M).

NIH 3T3 fibroblasts = experiment: NIH3T3 fibroblast proliferation; type: cell-based; conditions: 24 h
Method: FIG. 8. V1 acts specifically on endothelial cells. CPAE and NIH 3T3 fibroblasts were cultured with or without V1 peptide, and the changes in cell proliferation were measured after 24 h. Data represent the means and standard deviations of proliferation inhibition percentages for triplicate samples, and similar results were obtained in two independent experiments.
as §2

KDR [8] = biological target: T1, KDR (Homo sapiens, UniProt P35968); experiment: HUAE cell proliferation induced by KDR anti-idiotypic antibodies (AIA); type: cell-based; conditions: 100 ng/ml KDR anti-idiotypic antibodies, peptide daily, 5 days
T1 construct: endogenous in cells; host or cells: HUAE cells
T1 sequence (P35968 20-1356): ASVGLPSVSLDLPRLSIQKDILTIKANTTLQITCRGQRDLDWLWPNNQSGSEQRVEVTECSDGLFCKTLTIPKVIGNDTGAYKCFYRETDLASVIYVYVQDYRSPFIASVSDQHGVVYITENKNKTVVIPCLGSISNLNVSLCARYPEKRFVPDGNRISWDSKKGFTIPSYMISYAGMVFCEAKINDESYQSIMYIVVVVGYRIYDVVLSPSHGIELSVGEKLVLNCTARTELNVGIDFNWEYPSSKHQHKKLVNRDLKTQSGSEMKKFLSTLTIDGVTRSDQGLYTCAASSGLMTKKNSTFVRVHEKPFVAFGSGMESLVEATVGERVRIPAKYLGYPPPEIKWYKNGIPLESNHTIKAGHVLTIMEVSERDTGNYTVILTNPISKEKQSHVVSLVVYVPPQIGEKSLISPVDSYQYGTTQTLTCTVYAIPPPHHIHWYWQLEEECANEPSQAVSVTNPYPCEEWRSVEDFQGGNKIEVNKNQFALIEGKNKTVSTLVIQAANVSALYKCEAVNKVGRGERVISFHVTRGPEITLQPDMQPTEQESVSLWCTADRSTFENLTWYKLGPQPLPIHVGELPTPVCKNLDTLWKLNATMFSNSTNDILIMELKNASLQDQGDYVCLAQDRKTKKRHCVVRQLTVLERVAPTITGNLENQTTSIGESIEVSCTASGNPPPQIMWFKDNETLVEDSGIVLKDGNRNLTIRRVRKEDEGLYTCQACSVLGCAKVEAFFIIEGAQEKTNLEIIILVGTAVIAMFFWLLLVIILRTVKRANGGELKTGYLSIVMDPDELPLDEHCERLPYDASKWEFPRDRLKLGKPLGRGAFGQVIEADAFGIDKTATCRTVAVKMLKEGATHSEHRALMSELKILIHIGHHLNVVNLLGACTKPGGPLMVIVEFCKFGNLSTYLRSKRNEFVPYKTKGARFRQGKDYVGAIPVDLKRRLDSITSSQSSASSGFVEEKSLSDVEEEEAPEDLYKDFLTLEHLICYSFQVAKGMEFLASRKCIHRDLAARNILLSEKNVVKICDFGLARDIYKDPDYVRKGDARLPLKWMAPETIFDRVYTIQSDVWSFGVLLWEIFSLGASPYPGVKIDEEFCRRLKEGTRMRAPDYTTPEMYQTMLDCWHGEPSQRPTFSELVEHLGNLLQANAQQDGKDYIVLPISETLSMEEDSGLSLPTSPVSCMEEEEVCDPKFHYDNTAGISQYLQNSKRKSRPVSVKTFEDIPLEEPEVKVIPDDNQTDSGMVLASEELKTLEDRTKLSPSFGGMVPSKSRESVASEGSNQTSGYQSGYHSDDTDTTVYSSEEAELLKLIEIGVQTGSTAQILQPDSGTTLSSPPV
Method: as §3, §2

[9] = tested on: Human umbilical vein endothelial cell (HUVEC); experiment: VEGF165 induced HUVEC proliferation; type: cell-based; conditions: V1 400 μg/ml, various VEGF165 concentrations, 96 hours
Method: FIG. 13. Effect of V1 (400 μg/ml) VEGF165 induced HUVEC proliferation. Various concentrations of VEGF165 were added during 96 hours.
The inhibitory effect of V1 on Human umbilical vein endothelial cell (HUVEC) in primary culture.

VEGF-R2 on HUV-EC Cells = experiment: 125I-VEGF165 binding to HUV-EC cells (Scatchard); design: species or system human; conditions: V1 40 μg/ml
Text: as §1
(see FIGS. 16A, B and C).

[10] = biological target: T2, recombinant KDR expressed at the membrane surface of CHO-KDR cells (UniProt P35968 20-1356, limits assumed); experiment: displacement of 125I-VEGF165 from CHO-KDR transfected cells
T2 construct: whole, on cells; also called VEGFR-2; VEGF-R2
T2 sequence (P35968 20-1356 limits assumed): as the sequence (P35968 20-1356) above
Method: Competition assay of binding to CHO-KDR cells. CHO-KDR cells were seeded in 24-well plates at a density of 5×10⁵ cells/well. After 24 h, subconfluent plates were transferred at 4° C., and all subsequent operations were done at 4° C. […] After 3 h, cells were washed five times with binding buffer and solubilized by the addition of 0.5 M NaOH. The amount of radioactivity bound to the cells was counted in a gamma counter (LKB 1261 Multigamma). The receptor affinity and the number of binding sites per cell were determined by Scatchard's analysis (Scatchard, 1986).

[11] = heparin various amounts, PlGF 50 ng/ml

AAWLPPK [A9, V1 analogue, C-terminal arginine substituted by lysine]
peptide efficiency after change of C-terminal arginine (KDR [1]): also reduced the peptide efficiency

ATALPPR [A3]
Efficiency (% Emax) (KDR [1]): 70 % Emax

ATWLAPR [A5]
Efficiency (% Emax) (KDR [1]): 65 % Emax

ATWLPPA [A7]
activity of alanine-substituted analogues in displacement of 125I-VEGF165 (KDR [1]; AlaScan): totally devoid of activity
Efficiency (% Emax) (KDR [1]): 0 % Emax

LPPNPTK [V6]
reduction of CPAE cell proliferation [2]: significantly inhibited the proliferation of endothelial cells
ELISA signal of phage clone binding to CHO-KDR cells (KDR [3]): best reactivities
inhibitory effect on VEGF binding to KDR (KDR [4]): did not affect the binding of VEGF to KDR; also recorded: no effect on VEGF binding to KDR

ATWLPAR [A6]
Efficiency (% Emax) (KDR [1]): 84 % Emax

ILDNYKL [V5]
effect on VEGF-induced proliferation of human endothelial cells [5]: no inhibitory effect
effect on VEGF-induced corneal angiogenic response [6]: not modified
neovascularization by peptide compared with vehicle alone [6]: did not improve the generation of new blood vessels
effect on VEGF binding to CHO-KDR cells (KDR [4]; various concentrations, same conditions as V1): did not modify VEGF binding

ATWLPPR [V1, ATWLPPR]
labeling of 125I-VEGF-receptor complexes (240-260 kDa and 160-170 kDa) [7]: decreased
reduction of CPAE cell proliferation [2]: 60%
effect on NIH 3T3 fibroblast proliferation (NIH 3T3 fibroblasts): did not modify the proliferation
effect on AIA-dependent cell proliferation (KDR [8]): could suppress the AIA-dependent cell proliferation
effect on VEGF-induced proliferation of human endothelial cells [5]: suppressed the mitogenic activity of VEGF in a dose dependent manner
effect on binding and affinity of 125I VEGF165 to VR2 on transfected CHO cells (KDR [1]; 50 μg/ml V1, Scatchard): inhibited the binding; also recorded: affinity is lowered
IC50 (KDR [1]; 125I-VEGF 7 pM, heparin 1 μg/ml, 3 hours +4° C., read-out: CI50 (the source's name)): 18.8 µM
effect on heparin agonistic effect on VEGF165 binding (KDR [1]; V1 50 μg/ml): inhibited this heparin agonistic effect
Efficiency (% Emax) (KDR [1]): 100 % Emax
effect on VEGF-induced corneal angiogenic response [6]: totally abolished
neovascularization by peptide compared with vehicle alone [6]: did not improve the generation of new blood vessels
effect on VEGF-induced HUVEC proliferation [9]: inhibited by V1 in a non competitive manner
ELISA signal of phage clone binding to CHO-KDR cells (KDR [3]): best reactivities
effect on VEGF binding to HUV-EC receptors (VEGF-R2 on HUV-EC Cells): inhibited only the VEGF binding to high affinity receptors
block of VEGF binding to CHO-KDR cells (KDR [4]): nearly block VEGF binding
inhibitory effect on VEGF binding to KDR (KDR [4]): showed an inhibitory effect
IC50 (KDR [4]; read-out: IC50 for inhibition of VEGF binding to CHO-KDR cells, estimated): 80 µM

heparin [reference compound]
optimal heparin concentration for increasing VEGF binding (KDR [4]): 1.8 µg/mL
effect on VEGF binding to CHO-KDR cells (KDR [4]; [11]): increase the binding of VEGF

SLPAHAR [K4]
reduction of CPAE cell proliferation [2]: minor effect on endothelial growth
inhibitory effect on VEGF binding to KDR (KDR [4]): could partially inhibit VEGF binding to KDR

ATWAPPR [A4]
Efficiency (% Emax) (KDR [1]): 31 % Emax

AAWLPPR [A2]
Efficiency (% Emax) (KDR [1]): 61 % Emax

ATALPP [A10]
peptide efficiency after change of C-terminal arginine (KDR [1]): significantly reduced the peptide efficiency

ATWLPPA (AlaScan analogue of ATWLPPR) [V1 analogue A7 (Ala7-substituted analogue)]
Efficiency (% Emax) [10]: 0 % Emax

B1: PlGF: placenta growth factor (R & D Systems) (protein)
chain: AVPPQQWALSAGNGSSEVEVVPFQEVWGRSYCRALERLVDVVSEYPSEVEHMFSPSCVSLLRCTGCCGDENLHCVPVETANVTMQLLKIRSGDRPSYVELTFSQHVRCECRPLREKMKPERCGDAVPRR
effect on VEGF binding to CHO-KDR cells (KDR [4]; [11]): not modifying VEGF binding
